Test results published in US20250032454A1, “KDM1A INHIBITORS FOR THE TREATMENT OF DISEASE” (Imago Biosciences, Inc., priority 2021, published 2025).
Read-outs that look alike come from different tables or passages of the source.

Assays:
LSD1 = LSD1 (Homo sapiens, UniProt O60341); experiment: LSD1 fluorescence coupling enzyme assay (HRP/Amplex Red, H3(1-21)K4me2 peptide), 10-dose IC50; format: biochemical; details: 10 μM histone H3(1-21)K4me2 peptide substrate, 3-fold serial dilution from 100 μM
How it was run: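 Fluorescence coupled assay: LSD1 demethylation of 10 μM H3(1-21)K4me2 peptide produces FAD-dependent H2O2, detected via HRP/Amplex Red as resorufin (Ex/Em 535/590 nm). IC50 from 10 doses, 3-fold serial dilution from 100 μM, in duplicate.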

MV4;11 cells = experiment: Cell Titer-Glo cell growth inhibition in MV4;11 cell line (Day 5 / Day 10); format: cell-based; details: Homo sapiens
Method: Cell growth inhibition against MV4;11 cells was confirmed for the synthetic compounds. The Cell Titer-Glo Luminescent Cell Viability Assay (Promega, USA) was used to determine the number of viable cells in culture based on quantitation of the ATP present, which signals the presence of metabolically active cells. This assay was run in a 96-well plate format arrayed in a 10-point dose curve, ranging from 0 to 50 µM with 4-fold dilutions for each compound. Cells are seeded on Day 0 at 3750 cells per well. At Day 5, a portion of each well is assayed for viability according to the Cell Titer-Glo protocol. Briefly, cells/plates were centrifuged at 1100×g for 5 minutes. 100 μL of media was removed from each well and replaced with 100 μL of CellTiter-Glo. The plates were shaken at room temperature for 10 minutes and measured on a luminescence plate reader. Another portion of each well from the Day 5 plate is used to seed a new 96 plate containing fresh compound and media set up in the equivalent 10-point dose curve array in order to continue the cell growth inhibition assay for another 5 days. A final timepoint is collected at Day 10 using the Cell Titer-Glo protocol. Luminescence was detected on an En Vision® Multilabel Plate Reader (Perkin Elmer, Waltham, Mass.) and IC50 determination was made using Graph Pad Prism software.

[1] = MV4-11, 120 h, Day 5, read-out: Cell Titer-Glo IC50 (5 d)
[2] = MV4-11, 240 h, Day 10, read-out: Cell Titer-Glo IC50 (10 d)

SMILES | IC50 (LSD1) [nM] | IC50 (MV4;11 cells; [1]) [nM] | IC50 (MV4;11 cells; [2]) [nM]
CN[C@@H]1CCCC(CNc2cc(-c3ccc(C#N)c(F)c3)n(-c3ccc(OC)cc3)n2)C1 (single isomer, unassigned) [Example 32b] | 1000 to 10000 | 1000 to 10000 | –
CN[C@H]1CCC[C@H](CNc2cc(-c3ccc(C#N)c(F)c3)n(-c3ccc(OC)cc3)n2)C1 (single isomer, unassigned) [Example 33a] | 500 to 1000 | 1000 to 10000 | –
CN[C@@H]1CCC[C@@H](CNc2cc(-c3ccc(C#N)c(F)c3)n(-c3ccc(OC)cc3)n2)C1 (single isomer, unassigned) [Example 33b] | < 500 | 1000 to 10000 | –
COc1ccc(-n2nc(N)cc2-c2ccc(C#N)c(F)c2)cc1 [Example 1, 4-(3-Amino-1-(4-methoxyphenyl)-1H-pyrazol-5-yl)-2-fluorobenzonitrile] | > 10000 | > 10000 | –
COc1ccc(-n2nc(NCC3CCNCC3)cc2-c2ccc(C#N)c(F)c2)cc1 [Example 2, 2-Fluoro-4-(1-(4-methoxyphenyl)-3-((piperidin-4-ylmethyl)amino)-1H-pyrazol-5-yl)benzonitrile] | < 500 | < 500 | –
COc1ccc(-n2nc(NCC3CCCNC3)cc2-c2ccc(C#N)c(F)c2)cc1 (stereo not shown) [Example 3, 2-fluoro-4-(1-(4-methoxyphenyl)-3-((piperidin-3-ylmethyl)amino)-1H-pyrazol-5-yl)benzonitrile] | < 500 | < 500 | –
COc1ccc(-n2nc(NCC3CCNC3)cc2-c2ccc(C#N)c(F)c2)cc1 (stereo not shown) [Example 8, 2-fluoro-4-(1-(4-methoxyphenyl)-3-((pyrrolidin-3-ylmethyl)amino)-1H-pyrazol-5-yl)benzonitrile] | < 500 | < 500 | –
Cn1cc2cc(-n3nc(NCC4CCCNC4)cc3-c3ccc(C#N)c(F)c3)ccc2n1 (stereo not shown) [Example 9, 2-Fluoro-4-(1-(2-methyl-2H-indazol-5-yl)-3-((piperidin-3-ylmethyl)amino)-1H-pyrazol-5-yl)benzonitrile] | < 500 | < 500 | –
Cn1cc2cc(-n3nc(NCC4CCNCC4)cc3-c3ccc(C#N)c(F)c3)ccc2n1 [Example 10, 2-Fluoro-4-(1-(2-methyl-2H-indazol-5-yl)-3-((piperidin-4-ylmethyl)amino)-1H-pyrazol-5-yl)benzonitrile] | < 500 | < 500 | –
COc1ccc(-n2nc(NC[C@@H]3CCC[C@@H](N)C3)cc2-c2ccc(C#N)c(F)c2)cc1 [Example 11RR, 4-(3-((((1R,3R)-3-aminocyclohexyl)methyl)amino)-1-(4-methoxyphenyl)-1H-pyrazol-5-yl)-2-fluorobenzonitrile] | 500 to 1000 | 1000 to 10000 | –
Cc1ccc(-n2nc(NC[C@@H]3CCC[C@@H](N)C3)cc2-c2ccc(C#N)c(F)c2)cc1 [Example 12RR, 4-(3-((((1R,3R)-3-aminocyclohexyl)methyl)amino)-1-(p-tolyl)-1H-pyrazol-5-yl)-2-fluorobenzonitrile] | 500 to 1000 | 1000 to 10000 | < 500
Cc1ccc(-n2nc(NC[C@H]3CCC[C@H](N)C3)cc2-c2ccc(C#N)c(F)c2)cc1 [Example 12SS, 4-(3-((((1S,3S)-3-aminocyclohexyl)methyl)amino)-1-(p-tolyl)-1H-pyrazol-5-yl)-2-fluorobenzonitrile] | < 500 | < 500 | < 500
Cn1cc2cc(-n3nc(NC[C@@H]4CCC[C@@H](N)C4)cc3-c3ccc(C#N)c(F)c3)ccc2n1 [Example 13RR, 4-(3-((((1R,3R)-3-aminocyclohexyl)methyl)amino)-1-(2-methyl-2H-indazol-5-yl)-1H-pyrazol-5-yl)-2-fluorobenzonitrile] | < 500 | 1000 to 10000 | < 500
Cn1cc2cc(-n3nc(NC[C@H]4CCC[C@H](N)C4)cc3-c3ccc(C#N)c(F)c3)ccc2n1 [Example 13SS, 4-(3-((((1S,3S)-3-aminocyclohexyl)methyl)amino)-1-(2-methyl-2H-indazol-5-yl)-1H-pyrazol-5-yl)-2-fluorobenzonitrile] | < 500 | – | < 500
